These results are taken from ChEMBL document CHEMBL5107976, “Chalcone-amide, a privileged backbone for the design and development of selective SARS-CoV/SARS-CoV-2 papain-like protease inhibitors” (Eur J Med Chem, 2022).

Series [1] concerns Human rhinovirus sp. As to the kind of experiment: Antiviral activity against HRV infected in human HeLa cells assessed as inhibition in virus replication by plaque assay. Type of series: functional, organism-based.
For series [2], the system named is SARS-CoV-2. As to the kind of experiment: Antiviral activity against SARS-CoV-2 infected in human Caco-2 cells expressing hACE2 assessed as reduction in virus replication incubated for 48 hrs by Western blot analysis. Type of series: functional, organism-based. The following applies: Severe acute respiratory syndrome coronavirus 2, Caco-2, 48 h. On the technique in general: In western blotting, separated proteins are transferred to a membrane and probed.

Series [3] can be described thus: Cytotoxicity against African green monkey Vero E6 cells assessed as reduction in cell viability. The series is classed as toxicity, cell-based, Vero C1008. Particulars: chlorocebus sabaeus.
Series [4] can be described thus: Inhibition of SARS-CoV PLpro using Z-Arg-Leu-Arg-Gly-Gly-AMC acetate as substrate by fluorometric assay. Also noted: species or system Severe acute respiratory syndrome-related coronavirus.
For series [5], the system named is SARS-CoV-2. As to the kind of experiment: Antiviral activity against SARS-CoV-2 infected in African green monkey Vero E6 cells assessed as reduction in viral replication at MOI of 0.5 incubated for 23 hrs by plaque assay. The series is classed as functional, organism-based. The following applies: Severe acute respiratory syndrome coronavirus 2, Vero C1008, 23 h.

Series [6] relates to SARS-CoV-2. Kind of series: Antiviral activity against SARS-CoV-2 infected in human Caco-2 cells expressing hACE2 assessed as reduction in virus replication. The series is classed as functional, organism-based. The following applies: Severe acute respiratory syndrome coronavirus 2, Caco-2.
For series [7], the target named is T1, Replicase polyprotein 1ab (Severe acute respiratory syndrome coronavirus 2, UniProt P0DTD1). As to the kind of experiment: Inhibition of SARS-CoV-2 PLpro.
Series [8] concerns the target T1, Replicase polyprotein 1ab. Kind of series: Inhibition of C-terminal His-tagged SARS-CoV-2 PLpro BetaCoV/Wuhan/WIV04/2019 strain (1564 to 1876 residues) expressed in Escherichia coli BL21(DE3) using FRET substrate measured after 3 hrs by enzymatic assay.
Series [9] is described as follows: Inhibition of SARS-CoV PLpro (1541 to 1855 residues) using RLRGG-AMC as substrate preincubated for 5 mins followed by substrate addition measured after 6 mins by fluorescence based assay. On the set-up: species or system Severe acute respiratory syndrome-related coronavirus.

As a reminder, the IC50 is the concentration that gives 50% inhibition. By EC50 is commonly meant the concentration giving half of the maximal effect. What is called CC50 is the concentration giving 50% cytotoxicity.

≈ marks a conversion by molar mass, not a printed value. A value given as a limit tells only on which side of the number the result lay.

For `CCOc1cc(O)c(C(=O)NCc2ccc(OC)cc2)c(OC)c1`, the IC50 in series [1] was 0.014 µg/mL (≈ 0.0422 µM). The same measure, in the same setting: the result for `CCOc1cc(O)c(C(=O)/C=C/c2ccc(OC)cc2)c(OC)c1` reads 0.045 µg/mL (≈ 0.137 µM). For `C[C@H](c1cccc2ccccc12)N1CCC(C(=O)NCc2cc(F)cc(NC(=O)CN(C)C)c2)CC1`, the EC50 in series [2] turned out to be 0.22 µM.

In the case of `C[C@H](c1cccc2ccccc12)N1Cc2ccccc2C1`, the cytotoxic concentration (CC50) in series [3] came out at 442 µM. In addition, the IC50 in series [4] worked out at 2.9 µM. In addition, the EC50 in [5] was 7.85 µM. As for `Cc1ccc(N)cc1C(=O)N[C@H](C)c1cccc2ccccc12`, the EC50 in series [6] is 25.1 µM. With `Cc1ccc(NC2CNC2)cc1C(=O)N[C@H](C)c1cccc(-c2ccc(CNC[C@H]3CCCO3)s2)c1`, half-maximal inhibition in [7] (IC50) was put at 0.76 µM. For `C[C@H](c1cccc2ccccc12)N1CCC(C(=O)NCc2cc(F)cc(NC(=O)N3CCN(C)CC3)c2)CC1`, the EC50 in series [2] is 0.18 µM. Turning to `COc1cc(O)ccc1CN(C)[C@H](C)c1cccc2ccccc12`, in series [8], it took 0.58 µM to reach half-maximal inhibition (IC50). For `COc1ccc(CNC(=O)C2CCN(Cc3cccc4ccccc34)CC2)cc1`, half-maximal inhibition in [9] (IC50) required 59.2 µM. Consider `Cc1ccc(N)cc1CN(C)[C@H](C)c1cccc2ccccc12`, for which the EC50 in series [6] was 8.89 µM. Besides, the IC50 in series [8] was determined as 0.99 µM. For the molecule `Cc1ccc(N(C)C)cc1C(=O)N[C@H](C)c1cccc2ccccc12`, the IC50 in series [4] was determined as 4 µM. Take `C[C@H](c1cccc2ccccc12)N1Cc2ccc(N)cc2C1`: in [4], the IC50 was determined as 4.9 µM. `C[C@H](c1cccc2ccccc12)N(C)Cc1ccc(O)cc1`: the EC50 in [6] was found to be 8.32 µM. Turning to `C[C@H](c1cccc2ccccc12)N1CCC(C(=O)NCc2cccc(NC(=O)N3CCN(C)CC3)c2)CC1`, the EC50 in series [2] was 0.6 µM. With `Cc1ccsc1C(=O)N[C@H](C)c1cccc2ccccc12`, the CC50 in series [3] is over 500 µM. In addition, the IC50 in [4] was found to be 14 µM. The EC50 in series [5] was found to be 4.74 µM.

As to `C[C@H](c1cccc2ccccc12)N1Cc2ccc(O)cc2C1`, the IC50 in series [4] is 4.5 µM. As for `C[C@@H](NC(=O)c1ccccc1Cl)c1cccc2ccccc12`, the CC50 in [3] stood at 376 µM. In series [4], this molecule gave an IC50 of 6.5 µM. Further, the EC50 in series [5] is 1.77 µM. On to `Cc1cc(NS(C)(=O)=O)ccc1C(=O)N[C@H](C)c1cccc2ccccc12`, for which it took 4.8 µM to reach half-maximal inhibition in series [4] (IC50). As to `CCOc1cc(O)c(C(=O)NCc2ccc(NC)cc2)c(OC)c1`, the IC50 in series [1] was determined as 0.022 µg/mL (≈ 0.0666 µM). On to `CNS(=O)(=O)c1ccc(C)c(C(=O)N[C@H](C)c2cccc3ccccc23)c1`, for which 4 µM corresponded to half-maximal inhibition in series [4] (IC50). In the case of `COc1ccc(CNC(=O)c2c(O)cc(OCC=C(C)C)cc2OC)cc1`, the IC50 in series [1] was found to be 0.0072 µg/mL (≈ 0.0194 µM). With `Cc1cc(N)ccc1C(=O)N[C@H](C)c1cccc2ccccc12`, the 50% cytotoxic concentration (CC50) in [3] was over 500 µM. In series [4], the IC50 was 1.2 µM. Besides, the EC50 in [5] is 15.8 µM.
